Values joined by “and” are separate entries in the source; they are usually repeats but may differ in a detail not shown here. Identical values can stand only once.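 Briefly, cells in 96-well plates were exposed to five compound concentrations for 48 h, and endpoints were estimated by linear interpolation. GI50 marks 50% less growth. The concentration for full growth arrest is given as TGI.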
Assays:
Experiment in all cases: inhibition of tumour cell growth, NCI panel, 48 h
[1] = test system: BT-549 breast
[2] = test system: MALME-3M melanoma
[3] = test system: HCT-15 colon
[4] = test system: NCI-H226 lung
[5] = test system: M14 melanoma
[6] = test system: TK-10 renal
[7] = test system: OVCAR-5 ovarian
[8] = test system: HOP-92 NSCLC
[9] = test system: ACHN renal
[10] = test system: SK-MEL-28 melanoma

Structure (SMILES) | TGI [1] [µM] | TGI [2] [µM] | TGI [3] [µM] | TGI [4] [µM] | TGI [5] | TGI [6] | TGI [7] | TGI [8] [µM] | TGI [9] [µM] | GI50 [10] [µM] | TGI [10] | GI50 [1] [µM] | GI50 [2] [µM] | GI50 [3] [µM] | GI50 [4] [µM] | GI50 [5] [µM] | GI50 [6] [µM] | GI50 [7] [µM] | GI50 [8] [µM] | GI50 [9] [µM]
C/C=C(/C)C(=O)O[C@H]1[C@H](O)CC(c2ccc3c(c2O)C(O)=C2C(=O)C4(OC)C(O)=C(C(N)=O)C(=O)[C@H](CC(=O)c5ccccc5O)C4CC2[C@@]3(C)OC)O[C@@H]1C (stereo not given in full) | 0.892 | 2.87 | 18.1 | 2.33 | 2.13 µM and 1.34 µM | 6.19 µM and 4.65 µM | 2.02 µM and 0.916 µM | 0.625 | 3.96 | 1.06 | 2.56 µM and 2.45 µM | – | – | – | – | – | – | – | – | –
CC1(C)C(=O)/C(=C\c2cccnc2)C[C@]2(C)[C@H]3CC[C@@H]4[C@@H](C(=O)/C=C/c5ccncc5)CC[C@@]4(C)[C@]3(C)CC[C@@H]12 | 3.35 | 3.43 | 4.85 | 5.78 | 4.93 µM | 5.29 µM | 5.36 µM | 3.39 | 3.36 | 1.98 | 3.97 µM | 1.59 | 1.78 | 1.71 | 2.34 | 1.89 | 2.7 | 2.45 | 1.48 | 1.75
C=CC1=C(C)C2=NC1=CC1=NC(=C(CC)/C1=C\O)C=C1N=C3C(=C1C)C(=O)[C@H](C(=O)OC)C3=C1NC(=C2)[C@@H](C)[C@@H]1CCC(=O)O | > 100 | > 100 | > 100 | > 100 | > 100 µM | > 100 µM | > 100 µM | > 100 | > 100 | – | > 100 µM | – | – | – | – | – | – | – | – | –
Cc1c(Cl)cccc1NC(=O)c1sc2nc3c(cc2c1N)CCCCC3 | > 50 | 37.7 | > 50 | 34.1 | > 50 µM | 45.6 µM | > 50 µM | 19.2 | > 50 | 1.22 | > 50 µM | 0.252 | 0.357 | 0.195 | 4.68 | 0.233 | 6.66 | 1.33 | 0.266 | 0.449
O=c1oc2c(C(F)(F)F)cccc2cc1-c1csc(Nc2ccc(OCCF)cc2)n1 | 6.34 | > 91.7 | > 100 | 72.3 | 1.14 µM | 81 µM | > 100 µM | 3.88 | 13.5 | 1.32 | > 66.4 µM | 0.0387 | 6.48 | 0.0389 | 0.587 | 0.0282 | 0.0838 | 0.231 | 0.0975 | 0.0609
CC(C)=CCCC(C)C1=C(O)C(=O)C(C)=CC1=O (stereo not given) | 30.2 | 23 | 5.75 | 47.5 | 36 µM | 23.5 µM | 33.5 µM | 3.67 | 3.98 | – | > 42.4 µM | – | – | – | – | – | – | – | – | –
O=C(c1ccccc1)c1c(C(F)(F)F)n([O-])c2ccc(C(F)(F)F)cc2[n+]1=O | 0.269 | 1.2 | 0.711 | 1.2 | 1.47 µM | 1.35 µM | 0.753 µM | 0.318 | 0.26 | 0.507 | 0.957 µM | 0.125 | 0.545 | 0.277 | 0.524 | 0.619 | 0.636 | 0.264 | 0.16 | 0.102
CCN(Cc1c(Cl)cccc1Cl)c1ccc(CO)c(Cl)c1 | 30.4 | 27.2 | 23.5 | 0.071 | 30.9 µM | 0.0592 µM | 0.24 µM | 9.64 | 27.3 | 11.9 | 25.5 µM | 16.2 | 12.6 | 10.4 | 0.0224 | 15.5 | < 0.0238 | < 0.0284 | 0.606 | 14.2
Oc1ccc(Cc2cc(Cl)cc(Cl)c2O)cc1Cl | 33.4 | 30.9 | 35.2 | 40.2 | 34 µM | 30.6 µM | 38.9 µM | 33.9 | 31.2 | – | 32.9 µM | – | – | – | – | – | – | – | – | –
Cc1cc(Nc2cc(N)ncn2)c(=O)n2c1C(=O)NC21CCCCC1 | > 100 | > 100 | > 100 | > 100 | > 100 µM | > 100 µM | > 100 µM | > 100 | > 100 | > 100 | > 100 µM | 48.4 | > 100 | > 100 | > 100 | > 100 | > 100 | > 100 | 13.3 | 25.3
CCCCCCCCCCCCCCCCCC(=O)Nc1ccn(C2OC(CO)C(O)C2O)c(=O)n1 (stereo not given) | > 91.5 | > 59.1 | > 100 | > 100 | > 77.3 µM | > 100 µM | > 100 µM | > 100 | > 100 | – | > 100 µM | – | – | – | – | – | – | – | – | –
CCN(CC)c1ccc(/C=C/C=C2\NC(=O)NC2=O)cc1 | 40.8 | > 100 | > 100 | > 100 | > 100 µM | 64.2 µM | 98.4 µM | 24.2 | > 100 | 27.1 | > 100 µM | 1.53 | 28.7 | 2.31 | 15 | 1.56 | 6.54 | 11.1 | 1.74 | 7.24
NC(=S)NN=C1CSSC1 | 10.1 | 28.8 | 4.75 | 14.5 | 7.79 µM | 7.62 µM | 40.9 µM | 5.89 | 31.7 | 4.67 | 25.9 µM | 3.37 | 3.67 | 1.7 | 1.66 | 1.92 | 2.73 | 5.26 | 2.35 | 3.05
O=C(NC(=S)Nc1cc(Cl)ccc1O)c1cccc(Br)c1 | > 100 | 55.4 | > 100 | > 100 | > 100 µM | 78.9 µM | > 100 µM | 59.2 | > 100 | 16.5 | > 100 µM | 62.9 | 9.33 | 4.78 | 28.6 | 26.3 | 17.1 | 57.1 | 10.5 | 6.85
Cc1cc(I)cc(CN(C)CCCN2CCN(C)CC2)c1O | > 73.9 | 36.2 | 59 | > 100 | 23.9 µM | > 100 µM | > 100 µM | > 100 | > 100 | 17.2 | 33 µM | 21 | 19.9 | 21.1 | 56.9 | 4.67 | 61.7 | 78.7 | 37.9 | 81.6
CC(=O)c1nc2ccccc2n1CC(=O)c1cccc(Cl)c1 | > 100 | > 100 | > 100 | > 44.2 | > 100 µM | 99.7 µM | > 71.4 µM | > 86.2 | > 100 | 0.437 | > 54.3 µM | 1.12 | 0.517 | 0.246 | 3.39 | 0.262 | 3.22 | 3.42 | – | 1.08
O=C(O)c1cc2ccccc2c2c1C(=O)c1ccccc1-2 | > 100 | > 100 | > 100 | > 100 | > 100 µM | > 100 µM | > 100 µM | > 100 | > 100 | – | > 100 µM | – | – | – | – | – | – | – | – | –
COC(=O)C(C)NC(=O)c1ccccc1I(OS(=O)(=O)C(F)(F)F)c1ccccc1 (stereo not given) | 57.3 | 29.5 | 41.7 | 36 | 32.8 µM | 57.6 µM | 36.7 µM | 21.6 | 36.4 | 18.7 | 45.3 µM | 23 | 14 | 16 | 17.1 | 1.23 | 21 | 16.9 | 3.66 | 19.2
COc1ccc(Cn2cc3c(c2-c2cc(OC)c(OC)c(OC)c2)CCc2cnoc2-3)cc1 | > 100 | > 100 | > 100 | > 100 | 0.87 µM | > 100 µM | > 100 µM | > 100 | > 100 | 0.517 | > 100 µM | 1.62 | 0.239 | 0.354 | 1.58 | 0.216 | 0.842 | 3.68 | > 21.4 | 0.849
CN(C)CCCn1c(-c2nonc2N)nc2cnccc21 | > 25 | > 25 | > 25 | > 25 | > 25 µM | > 25 µM | > 25 µM | > 25 | > 25 | > 25 | > 25 µM | > 25 | > 25 | > 25 | > 4.99 | > 25 | > 9.98 | > 25 | 1.96 | > 25
